The values that follow come from patent US20240278014A1, “METHODS AND PHARMACEUTICAL FORMULATIONS FOR MODULATING THE PROPERTIES OF THE BLOOD LABYRINTH BARRIER” (Cochlear Limited, priority 2021, published 2024).

The conditions of series [1]: in vivo; cited from earlier work.
The conditions of series [2]: guinea pig, in vivo, iv. On the procedure: Fluorescein (20 mM) was administered through a cannula in the jugular vein by continuous intravenous (IV) injection at a rate of 20 μL/minute. […] Implants were placed through a cochleostomy into the basal turn of the scala tympani. Perilymph sampling began two hours after IV infusion began, and the concentration of fluorescein in the perilymph was used as a proxy for BLB permeability. Sampling in the perilymph was accomplished as follows: The cochlear apex was prepared for fluid sampling by building a hydrophobic cup of silicone adhesive around it. When the apex was perforated, the emerging fluid collected in the cup without loss into the middle ear. Ten samples were collected in sequence, with each taking 60 to 90 seconds. […] Fluorescein concentrations were compared for implanted versus non-implanted […], and from ears of non-implanted control animals.

A short description of series [3]: Perilymph fluorescein as proxy for BLB permeability after cochlear implantation. Type of series: in vivo, guinea pigs. The note with it: on average; same animal; perilymph sampled two hours after start of IV infusion. The text has this: In some embodiments, methods for assessing a more permeable than normal blood labyrinth barrier (but not treating it or preventing it from becoming more permeable) involve injecting a pharmaceutical formulation functioning as a marker into the blood stream of a recipient, measuring the amount of formulation in the perilymph as a function of time. As the barrier becomes more permeable after implantation, the formulation may be detected in greater quantities in the perilymph. In this type of experiment, the data may be normalized to the contralateral ear (without an implant), which allows data to be collected from a single subject serving as its own “control.”
We measured the time course of BLB compromise following cochlear implantation in guinea pigs to characterize the development of increasing BLB permeability relating to the BLB disruption that surgical implantation causes.
Seven days following cochlear implantation, the perilymph was sampled at 126 minutes (non-implanted) and 127 minutes (implanted) after the start of IV fluorescein infusion began (shown in solid symbols). Open symbols show the same data corrected to a sample time beginning at 120 minutes after the start of the infusion, assuming a linear rate of entry through the BLB over time. […] Each sample time represents the mean of samples 1-6 from one ear; lines represent the group (n=5) mean. […]

In the case of lipopolysaccharide [LPS], the “effect on BLB” value in series [1] is “induce systemic inflammation, compromising the BLB”.
Consider `O=C1OC2(c3ccc(O)cc3Oc3cc(O)ccc32)c2ccccc21` [Fluorescein], for which, in series [2], the elimination half time is 11 min and the “volume of calculated time course” value is listed as 183 mL. For the same molecule, the “BLB permeability increase (perilymph fluorescein, implanted versus nonimplanted ear)” value in series [3] is listed as “two- to three-fold”.
